# Legend:
# [1] = tested on: Mycobacterium tuberculosis; assay: Induction of membrane damage in Mycobacterium bovis BCG incubated for 60 mins under dark condition using DiOC2 probe by fluorescence assay; format: organism-based; conditions: variant bovis BCG, 1 h
# [2] = tested on: Mycobacterium tuberculosis; assay: Antimycobacterial activity against Mycobacterium bovis BCG assessed as depletion of intracellular ATP level at 5 times antimycobacterial MIC after 20 hrs by luciferin/luciferase coupled reporter gene assay relative to control; format: functional, variant bovis BCG
Structure (SMILES),IC50 [1] [µM],Activity [2] [%]
CN(C)CCOc1ncc(Nc2cc(-c3ccccc3)nc3cc(-c4ccc(F)cc4)nn23)cc1F,> 100,25
COc1cc2nc(NCCC3CCOCC3)nc(Nc3cc(C(C)(C)C)n(C)n3)c2cc1OC,> 100,
CN(C)CCOc1ncc(Nc2cc(C(F)(F)F)nc3cc(-c4ccc(F)cc4)nn23)cc1F,> 100,
CN(C)CCOc1ncc(Nc2cc(-c3ccccc3)nc3cc(-c4ccc(F)cc4)[nH]c23)cc1F,> 100,23
CCOc1ncc(Nc2nc(NCCC3CCOCC3)nc3cc(OC)c(OC)cc23)cc1F,,31
COc1cc2nc(N3CCC(c4ccccc4Cl)C3)cc(Nc3cnc(OCCN(C)C)c(F)c3)c2cc1OC (stereo not drawn),> 100,68
CN(C)CCOc1ncc(Nc2cc(N3CCC(c4ccccc4Cl)C3)nc3cc(F)c(F)cc23)cc1F (stereo not drawn),> 100,25
COc1cc2nc(N3CCC(c4ccccc4Cl)C3)cc(Nc3cnc(NCCN(C)C)c(F)c3)c2cc1OC (stereo not drawn),,22
CCOc1ncc(Nc2cc(NCCC3CCOCC3)nc3cc(OC)c(OC)cc23)cc1F,> 100,5
COc1nc2ccc(Br)cc2cc1[C@@H](c1ccccc1)[C@@](O)(CCN(C)C)c1cccc2ccccc12 [BEDAQUILINE],> 100,76
N#CC(C#N)=NNc1cccc(Cl)c1 [CARBONYL CYANIDE M-CHLOROPHENYLHYDRAZONE],3,
NNC(=O)c1ccncc1 [ISONIAZID],,-6

# — ChEMBL document CHEMBL3817834, “Scaffold morphing leading to evolution of 2,4-diaminoquinolines and aminopyrazolopyrimidines as inhibitors of the ATP synthesis pathway” (Medchemcomm, 2016)
